Experimental data from US6780867B2, “Thienopyrimidines” (Merck Patent GmbH, priority 2000, dated 2004).
Structures can show the parent of a compound that is named as a salt.

Row | melting point [°C] | Structure (SMILES)
1 | 136 to 137 | COc1ccc(CNc2nc(COCC(=O)O)nc3sc4c(c23)CCCC4)cc1Cl (as salt: salt) [Example 6, [4-(3-chloro-4-methoxybenzylamino)-5,6,7,8-tetrahydrobenzo[4,5]thieno-[2,3-d]pyrimidin-2-ylmethoxy]acetic acid]
2 | 158 to 160 | CCOC(=O)CSCc1nc(NCc2ccc(OC)c(Cl)c2)c2c3c(sc2n1)CCCC3 [Example 5, ethyl [4-(3-chloro-4-methoxybenzylamino)-5,6,7,8-tetrahydrobenzo[4,5]thieno-[2,3-d]pyrimidin-2-ylmethylsulfanyl]acetate]
